# From ChEMBL document CHEMBL1201862, “PubChem BioAssay data set” (2004)
#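 Five concentrations, 48 hours, 96-well plates. Abbreviation: GI50, concentration required for 50% inhibition of growth.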 Active and inactive are the calls of the source. No stated cut-off is given here; in the data, active = GI50 up to about 1.1 µM and inactive = higher.
# Columns and labels:
# Test in all cases: NCI-60 cell line screen, 48 h
# ACHN = test system: ACHN
# CCRF-CEM = test system: CCRF-CEM
# COLO 205 = test system: COLO 205
# EKVX = test system: EKVX
# HCT-116 = test system: HCT-116
# HL-60 = test system: HL-60
# MDA-MB-435 = test system: MDA-MB-435
# Malme-3M = test system: Malme-3M
# NCI-H23 = test system: NCI-H23
# NCI-H460 = test system: NCI-H460
# OVCAR-3 = test system: OVCAR-3
# PC-3 = test system: PC-3
# SF-295 = test system: SF-295
# SK-OV-3 = test system: SK-OV-3
# SW-620 = test system: SW-620
# UACC-257 = test system: UACC-257
# DU-145 = test system: DU-145
# MDA-MB-231 = test system: MDA-MB-231
# OVCAR-5 = test system: OVCAR-5
# OVCAR-8 = test system: OVCAR-8
SMILES,GI50 (ACHN),GI50 (CCRF-CEM),GI50 (COLO 205),GI50 (EKVX),GI50 (HCT-116),GI50 (HL-60),GI50 (MDA-MB-435),GI50 (Malme-3M),GI50 (NCI-H23),GI50 (NCI-H460),GI50 (OVCAR-3),GI50 (PC-3),GI50 (SF-295),GI50 (SK-OV-3),GI50 (SW-620),GI50 (UACC-257),GI50 (DU-145),GI50 (MDA-MB-231),GI50 (OVCAR-5),GI50 (OVCAR-8)
O=c1[nH]nc(-c2ccccc2)c2[nH]c3c4ccccc4ccc3c12,1.69 µM (inactive),1.56 µM (inactive),0.74 µM (active),3.44 µM (inactive),0.942 µM (active),0.548 µM (active),0.193 µM (active),4.83 µM (inactive),2.15 µM (inactive),0.56 µM (active),0.424 µM (active),1.28 µM (inactive),0.461 µM (active),2.61 µM (inactive),0.656 µM (active),5.82 µM (inactive),,,,
CC(C)[Si](OC1=C(C(=O)N(C)c2ccccc2Cl)CCCCC1)(C(C)C)C(C)C,> 100 µM (inactive),,> 100 µM (inactive),> 100 µM (inactive),> 100 µM (inactive),,> 100 µM (inactive),> 100 µM (inactive),> 100 µM (inactive),> 100 µM (inactive),> 100 µM (inactive),,> 100 µM (inactive),> 100 µM (inactive),> 100 µM (inactive),> 100 µM (inactive),> 100 µM (inactive),> 100 µM (inactive),> 100 µM (inactive),> 100 µM (inactive)
OCC(O)CNc1ccnc2cc(Cl)ccc12 (stereo not given),> 100 µM (inactive),> 100 µM (inactive),> 100 µM (inactive),> 100 µM (inactive),> 100 µM (inactive),> 100 µM (inactive),,> 100 µM (inactive),> 100 µM (inactive),> 100 µM (inactive),> 100 µM (inactive),,> 100 µM (inactive),> 100 µM (inactive),> 100 µM (inactive),> 100 µM (inactive),,,> 100 µM (inactive),> 100 µM (inactive)
O=C(O/N=C1/CCCC/C1=C\c1ccccc1)c1ccc(Cl)c(Cl)c1,15.5 µM (inactive),21.8 µM (inactive),28.2 µM (inactive),38.3 µM (inactive),13.6 µM (inactive),14.5 µM (inactive),,0.443 µM (active),19.2 µM (inactive),40.3 µM (inactive),21 µM (inactive),,31.8 µM (inactive),> 100 µM (inactive),18.7 µM (inactive),> 100 µM (inactive),,,69.2 µM (inactive),17.9 µM (inactive)
COc1cccc(/C=C2\N=C(Cl)OC2=O)c1O,> 100 µM (inactive),> 55.3 µM (inactive),> 100 µM (inactive),> 100 µM (inactive),> 100 µM (inactive),> 100 µM (inactive),,> 100 µM (inactive),> 100 µM (inactive),> 100 µM (inactive),> 100 µM (inactive),,> 100 µM (inactive),> 38.7 µM (inactive),> 66.4 µM (inactive),> 100 µM (inactive),> 100 µM (inactive),,> 100 µM (inactive),> 100 µM (inactive)
CN1CCC2(CC1)SSC1(CCN(C)CC1)S2,> 100 µM (inactive),> 100 µM (inactive),80.2 µM (inactive),,> 100 µM (inactive),> 100 µM (inactive),> 100 µM (inactive),,> 100 µM (inactive),> 100 µM (inactive),,> 100 µM (inactive),> 100 µM (inactive),> 100 µM (inactive),> 100 µM (inactive),> 100 µM (inactive),,> 100 µM (inactive),> 100 µM (inactive),> 100 µM (inactive)
COc1cc(Nc2cnc3cc(N)ccc3n2)cc(OC)c1OC,> 100 µM (inactive),40.3 µM (inactive),> 100 µM (inactive),58.6 µM (inactive),> 100 µM (inactive),40.1 µM (inactive),,> 100 µM (inactive),> 100 µM (inactive),34.1 µM (inactive),53.8 µM (inactive),,72.4 µM (inactive),69.7 µM (inactive),> 100 µM (inactive),> 100 µM (inactive),,,> 100 µM (inactive),78.2 µM (inactive)
COc1cc(C=O)c(-c2c(C=O)ccc3c2OCO3)c(OC)c1OC,> 100 µM (inactive),33.8 µM (inactive),64.9 µM (inactive),> 100 µM (inactive),> 100 µM (inactive),26.7 µM (inactive),,67.3 µM (inactive),> 100 µM (inactive),> 100 µM (inactive),72.6 µM (inactive),,60.4 µM (inactive),> 100 µM (inactive),38.2 µM (inactive),> 100 µM (inactive),,,> 100 µM (inactive),> 100 µM (inactive)
CCOC(=O)NC(C(=O)OCC)C(F)(F)F (stereo not given),> 100 µM (inactive),40.6 µM (inactive),> 100 µM (inactive),> 100 µM (inactive),> 100 µM (inactive),23.9 µM (inactive),,> 100 µM (inactive),> 100 µM (inactive),> 100 µM (inactive),> 100 µM (inactive),> 100 µM (inactive),> 100 µM (inactive),> 100 µM (inactive),> 100 µM (inactive),> 100 µM (inactive),,> 100 µM (inactive),> 100 µM (inactive),> 100 µM (inactive)
CC1(C)/C(=N\Nc2ccc([N+](=O)[O-])cc2[N+](=O)[O-])C2CCC1C2 (stereo not given),54 µM (inactive),> 10 µM (inactive),> 100 µM (inactive),> 100 µM (inactive),5.65 µM (inactive),> 100 µM (inactive),> 100 µM (inactive),> 100 µM (inactive),> 100 µM (inactive),> 100 µM (inactive),> 100 µM (inactive),> 100 µM (inactive),15.2 µM (inactive),27.7 µM (inactive),> 100 µM (inactive),19.3 µM (inactive),> 100 µM (inactive),,> 100 µM (inactive),> 100 µM (inactive)
CC1=C(C(=O)Nc2ccccc2C)C(c2ccc(N(C)C)cc2)C(C(=O)Nc2ccccc2C)=C(C)N1,67.6 µM (inactive),31.8 µM (inactive),> 100 µM (inactive),> 100 µM (inactive),55.3 µM (inactive),19 µM (inactive),,82.6 µM (inactive),58.7 µM (inactive),63.8 µM (inactive),> 100 µM (inactive),,> 100 µM (inactive),> 100 µM (inactive),51.8 µM (inactive),71.6 µM (inactive),,,> 100 µM (inactive),88.5 µM (inactive)
COc1ccc(-c2c(C(C)=O)c(-c3ccccc3)n(C3OC(CO)C(O)C(O)C3O)c(=S)c2C#N)cc1 (stereo not given),> 100 µM (inactive),> 100 µM (inactive),> 100 µM (inactive),> 100 µM (inactive),> 100 µM (inactive),> 100 µM (inactive),> 100 µM (inactive),> 100 µM (inactive),> 100 µM (inactive),> 100 µM (inactive),> 100 µM (inactive),,> 100 µM (inactive),> 100 µM (inactive),> 100 µM (inactive),> 100 µM (inactive),> 100 µM (inactive),> 100 µM (inactive),> 100 µM (inactive),> 100 µM (inactive)
O=c1cc(NNc2ccc(F)cc2)[nH]c(=O)[nH]1,17.9 µM (inactive),12.9 µM (inactive),16.5 µM (inactive),18.3 µM (inactive),17.9 µM (inactive),6.65 µM (inactive),,19.8 µM (inactive),29.4 µM (inactive),19.4 µM (inactive),16.4 µM (inactive),16.6 µM (inactive),> 100 µM (inactive),39.1 µM (inactive),17.5 µM (inactive),> 100 µM (inactive),> 100 µM (inactive),17.1 µM (inactive),19.2 µM (inactive),23.1 µM (inactive)
CCOC(=O)C(/N=N\c1ccc(S(N)(=O)=O)cc1)C(C)=O (stereo not given),> 100 µM (inactive),> 100 µM (inactive),> 100 µM (inactive),> 100 µM (inactive),> 100 µM (inactive),> 100 µM (inactive),,> 100 µM (inactive),> 100 µM (inactive),> 100 µM (inactive),> 100 µM (inactive),,> 100 µM (inactive),> 100 µM (inactive),> 100 µM (inactive),> 100 µM (inactive),,,> 100 µM (inactive),> 100 µM (inactive)
Nc1ccc(C(=O)NN2C(=O)C(Cl)C2c2cc(Br)cc(Br)c2O)cc1 (stereo not given),5.74 µM (inactive),5.53 µM (inactive),48.1 µM (inactive),4.62 µM (inactive),6.79 µM (inactive),1.31 µM (inactive),,17.3 µM (inactive),12.4 µM (inactive),3.4 µM (inactive),2.43 µM (inactive),,10.3 µM (inactive),11.2 µM (inactive),16.7 µM (inactive),7.67 µM (inactive),,,40.2 µM (inactive),14.7 µM (inactive)
COC(=O)CCCC(=O)O,> 100 µM (inactive),,> 100 µM (inactive),> 100 µM (inactive),> 100 µM (inactive),,> 100 µM (inactive),> 100 µM (inactive),> 100 µM (inactive),> 100 µM (inactive),> 100 µM (inactive),> 100 µM (inactive),> 100 µM (inactive),,> 100 µM (inactive),> 100 µM (inactive),> 100 µM (inactive),> 100 µM (inactive),> 100 µM (inactive),> 100 µM (inactive)
